{"source": "paper PMC3081663", "about": "(Journal of Natural Products, 2011)", "key": {"[1]": {"system": "phosphorylation of histone H2AX in HCT-15 cells", "assay": "In-cell Western assay for phosphorylation of histone H2AX", "format": "cell-based", "conditions": "4 h of drug treatment"}, "MCF-7": {"system": "MCF-7", "conditions": "MCF7 cells, 72 h treatment"}, "[2]": {"system": "phosphorylation of histone H2AX in MCF7 cells", "assay": "In-cell Western assay for phosphorylation of histone H2AX", "format": "cell-based", "conditions": "4 h"}, "panel of cell lines": {"system": "panel of cell lines", "assay": "Cytotoxicity in a panel of cell lines", "format": "cell-based"}, "supercoiled plasmid DNA": {"system": "supercoiled plasmid DNA", "assay": "In vitro DNA damage assay", "format": "biochemical"}, "[3]": {"system": "cell lines in which MDR1 was overexpressed", "conditions": "MDR1 overexpressed by drug selection or transfection; cited from earlier work"}, "MDR1/MRP in HCT-15 cells": {"system": "MDR1/MRP in HCT-15 cells", "format": "cell-based"}, "[4]": {"system": "human colon carcinoma cell line LS174T", "conditions": "LS174T subcutaneously implanted in nude mice; cited from earlier work"}}, "data": [{"compound": "bleomycin", "values": [{"measurement": "induction of phosphorylation of histone H2AX", "setting": "[1]", "value": "induced dose-dependent phosphorylation of histone H2AX"}]}, {"compound": "CC[C@@]1(O)C(=O)OCc2c1cc1n(c2=O)Cc2cc3ccccc3nc2-1", "note": "[camptothecin]", "values": [{"measurement": "induction of phosphorylation of histone H2AX", "setting": "[1]", "value": "induced dose-dependent phosphorylation of histone H2AX"}]}, {"compound": "CC(=O)N1CCN(c2ccc(OCC3COC(Cn4ccnc4)(c4ccc(Cl)cc4Cl)O3)cc2)CC1", "note": "(centres unmarked) [ketoconazole]", "values": [{"measurement": "effect on austocystin D cytotoxicity", "setting": "HCT-15", "value": "fully prevented"}]}, {"compound": "COc1cccc2c1C(=O)c1c(O)c3c(c(O)c1C2=O)C[C@@](O)(C(=O)CO)C[C@@H]3O[C@H]1C[C@H](N)[C@H](O)[C@H](C)O1", "note": "[doxorubicin]", "values": [{"measurement": "induction of phosphorylation of histone H2AX", "setting": "[1]", "value": "induced dose-dependent phosphorylation of histone H2AX"}]}, {"compound": "CC(C)(O)CCc1ccc(O)c2c(=O)c3c(O)c4c(cc3oc12)O[C@H]1OCC[C@@]41O", "note": "[dihydro-austocystin D]", "values": [{"measurement": "cytotoxicity (growth inhibition)", "setting": "MCF-7", "value": "very weak"}, {"measurement": "induction of the DNA damage response (phosphorylation of histone H2AX)", "setting": "[2]", "value": "very weak"}]}, {"compound": "CC(C)(O)CCc1ccc(O)c2c(=O)c3c(O)c4c(cc3oc12)O[C@H]1OC=C[C@@]41O", "note": "[austocystin D]", "values": [{"measurement": "GI50", "setting": "panel of cell lines; 72 h, read-out: GI50 values for three cell lines", "value": "< 10", "unit": "nM"}, {"measurement": "selectivity between sensitive and resistant cell lines", "setting": "panel of cell lines; 72 h cytotoxicity panel", "value": "over 1000 fold"}, {"measurement": "induction of phosphorylation of histone H2AX", "setting": "[1]", "value": "induced the phosphorylation of histone H2AX"}, {"measurement": "requirement for increased nicked DNA", "setting": "supercoiled plasmid DNA; 1 μM austocystin D with different additives", "value": "only in the presence of both liver microsomes and the NADPH regenerating system"}, {"measurement": "concentration causing direct DNA damage (nicking of supercoiled plasmid DNA)", "setting": "supercoiled plasmid DNA; human liver microsomes and NADPH regenerating system, 4 h, 37 °C", "value": 100, "unit": "nM"}, {"measurement": "fold more potent in cell lines in which MDR1 was overexpressed", "setting": "[3]", "value": 20, "unit": "fold"}, {"measurement": "inhibition of calcein-AM efflux (retention of calcein)", "setting": "MDR1/MRP in HCT-15 cells", "value": "inhibited efflux of calcein-AM"}, {"measurement": "tumor growth in vivo", "setting": "[4]", "value": "inhibited the growth"}]}]}
